Drawing on patent US20250163104A1, “MACROCYCLIC IMMUNOMODULATORS” (priority 2021, published 2025), this text covers IC50 for 14 compounds.

The target of this test is T1, human PD-1 / PD-L1-Ig binding on Jurkat cell line over-expressing human PD-1 (Jurkat-PD-1) (Homo sapiens, UniProt Q15116).
T1 construct: expressed in transfected cells; host or cells: Jurkat
The test can be described thus: Jurkat-PD-1 Cell Binding High-Content Screening Assay (CBA). Format: cell-based. The following applies: Jurkat-PD-1 cells, PE-labeled PD-L1-Ig 20 nM final; read-out: Jurkat HPD1_PDL1 IC50. The gist of the method: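 Binding of fluorescent PD-L1-Ig (phycoerythrin linked via the Ig tag, 20 nM final) to PD-1-overexpressing Jurkat cells was imaged after a 2 h, 37° C compound pretreatment and 1 hour ligand incubation.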

By IC50 is commonly meant the concentration that inhibits the measured activity by half.

Where a SMILES comes first, the peptide text is derived from it. Bridges are numbered along the chain shown (N, C = ends). [ ]: non-standard residue; d: D form. The star is where a group is joined. Phe(4-COOH) = N[C@@H](Cc1ccc(C(=O)O)cc1)C(=O)O; Bip = N[C@@H](Cc1ccc(-c2ccccc2)cc1)C(=O)O; Phe(3-OMe) = COc1cccc(C[C@H](N)C(=O)O)c1; Phe(3-Me) = Cc1cccc(C[C@H](N)C(=O)O)c1; Val(3-OH) = CC(C)(O)[C@H](N)C(=O)O; 4Pal = N[C@@H](Cc1ccncc1)C(=O)O; Cha = N[C@@H](CC1CCCCC1)C(=O)O; Cit = NC(=O)NCCC[C@H](N)C(=O)O; Chg = N[C@H](C(=O)O)C1CCCCC1; Hpra = C#CCC[C@H](N)C(=O)O; Carboxymethyl = O=C(O)C*; Nle = CCCC[C@H](N)C(=O)O; Orn = NCCC[C@H](N)C(=O)O; Pra = C#CC[C@H](N)C(=O)O; Dab = NCC[C@H](N)C(=O)O; Dap = NC[C@H](N)C(=O)O; Piv = CC(C)(C)C(=O)*

T1 sequence (Q15116 25-288): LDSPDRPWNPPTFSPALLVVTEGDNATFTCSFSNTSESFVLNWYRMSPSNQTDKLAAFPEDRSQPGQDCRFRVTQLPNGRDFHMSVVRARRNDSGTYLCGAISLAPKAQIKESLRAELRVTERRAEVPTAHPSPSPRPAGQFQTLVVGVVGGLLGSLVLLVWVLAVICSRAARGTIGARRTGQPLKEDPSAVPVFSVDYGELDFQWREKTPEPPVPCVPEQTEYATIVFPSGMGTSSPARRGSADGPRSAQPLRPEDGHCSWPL

As for `C#CCC[C@@H]1NC(=O)[C@H](CC2CCCCC2)NC(=O)[C@H](CCN)NC(=O)[C@@H](CC(C)C)NC(=O)[C@H](CCCN)NC(=O)[C@H](C(C)C)NC(=O)[C@H](Cc2ccc(-c3ccccc3)cc2)NC(=O)[C@H](C(C)C)NC(=O)[C@H](Cc2cccc(C)c2)NC(=O)[C@H](CC(=O)O)NC(=O)[C@H](Cc2ccc(OCC(=O)O)cc2)NC(=O)[C@H](CN)NC(=O)CSC[C@@H](C(N)=O)NC(=O)[C@H]([C@@H](C)O)NC1=O` [Compound 2012] ({CH2CO}-[Dap]Y(Carboxymethyl)D[Phe(3-Me)]V[Bip]V[Orn][dL][Dab][Cha][Hpra]TC-NH2; thioether N-14), the IC50 worked out at 15.8 nM.
As for `CC(C)C[C@H]1NC(=O)[C@H](CCCN)NC(=O)[C@H](CCCNC(N)=O)NC(=O)[C@H](Cc2ccc(-c3ccccc3)cc2)NC(=O)[C@H](C(C)C)NC(=O)[C@H](Cc2c[nH]c3ccccc23)NC(=O)[C@H](CC(=O)O)NC(=O)[C@H](Cc2ccc(C(=O)O)cc2)NC(=O)[C@H](Cc2ccc(OCC(=O)O)cc2)NC(=O)CSC[C@@H](C(=O)N[C@@H](C)C(N)=O)NC(=O)[C@H]([C@@H](C)O)NC(=O)[C@H](C(C)C)NC(=O)[C@H](Cc2ccc(O)cc2)NC(=O)[C@H](CCN)NC1=O` [Compound 1684] ({CH2CO}-Y(Carboxymethyl)[Phe(4-COOH)]DWV[Bip][Cit][Orn][dL][Dab]YVTCA-NH2; thioether N-14), the IC50 amounted to 120 nM.
As for `CCCC[C@@H]1NC(=O)[C@H](CCN)NC(=O)[C@@H](CC(C)C)NC(=O)[C@H](CCCN)NC(=O)[C@H](CCCNC(N)=O)NC(=O)[C@H](Cc2ccc(-c3ccccc3)cc2)NC(=O)[C@H](CC(C)C)NC(=O)[C@H](Cc2cccc(C)c2)NC(=O)[C@H](CC(=O)O)NC(=O)[C@H](Cc2ccc(OCC(=O)O)cc2)NC(=O)[C@H](CN)NC(=O)CSC[C@@H](C(=O)N[C@@H](C)C(N)=O)NC(=O)[C@H]([C@@H](C)O)NC(=O)[C@H](C(C)C)NC1=O` [Compound 1295] ({CH2CO}-[Dap]Y(Carboxymethyl)D[Phe(3-Me)]L[Bip][Cit][Orn][dL][Dab][Nle]VTCA-NH2; thioether N-14), the figure is 9.8 nM.
For `C#CC[C@H](NC(=O)[C@H](CCN)NC(=O)[C@@H]1CSCC(=O)N[C@@H](CCCN)C(=O)N[C@@H](Cc2ccc(OCC(=O)O)cc2)C(=O)N[C@@H](CC(=O)O)C(=O)N[C@@H](Cc2cccc(C)c2)C(=O)N[C@@H](Cc2ccc(OCC(=O)O)cc2)C(=O)N[C@@H](Cc2ccc(-c3ccccc3)cc2)C(=O)N[C@@H](Cc2ccc(OCC(=O)O)cc2)C(=O)N[C@@H](CCCN)C(=O)N[C@H](CC(C)C)C(=O)N[C@@H](CCN)C(=O)N[C@@H](CC2CCCCC2)C(=O)N[C@@H](C(C)(C)O)C(=O)N[C@@H]([C@@H](C)O)C(=O)N1)C(N)=O` [Compound 1854] ({CH2CO}-[Orn]Y(Carboxymethyl)D[Phe(3-Me)]Y(Carboxymethyl)[Bip]Y(Carboxymethyl)[Orn][dL][Dab][Cha][Val(3-OH)]TC[Dab][Pra]-NH2; thioether N-14), the IC50 turned out to be 15.1 nM.
As for `CC[C@H](C)[C@@H]1NC(=O)[C@H](Cc2ccc(-c3ccccc3)cc2)NC(=O)[C@H](C2CCCCC2)NC(=O)[C@H](Cc2c[nH]c3ccccc23)NC(=O)[C@H](CC(=O)O)NC(=O)[C@H](Cc2ccc(OCC(=O)O)cc2)NC(=O)[C@H](CN)NC(=O)CSC[C@@H](C(=O)N[C@@H](C)C(N)=O)NC(=O)[C@H]([C@@H](C)O)NC(=O)[C@H](C(C)C)NC(=O)[C@H](CC2CCCCC2)NC(=O)[C@H](CCN)NC(=O)[C@@H](CC(C)C)NC(=O)[C@H](CCCN)NC1=O` [Compound 1722] ({CH2CO}-[Dap]Y(Carboxymethyl)DW[Chg][Bip]I[Orn][dL][Dab][Cha]VTCA-NH2; thioether N-14), the figure is 27.5 nM.
Take `CC(C)C[C@H]1NC(=O)[C@H](CCCN)NC(=O)[C@H](C(C)C)NC(=O)[C@H](Cc2ccc(-c3ccccc3)cc2)NC(=O)[C@H](C(C)C)NC(=O)[C@H](Cc2c[nH]c3ccccc23)NC(=O)[C@H](CC(=O)O)NC(=O)[C@H](Cc2ccc(C(=O)O)cc2)NC(=O)[C@H](Cc2ccc(OCC(=O)O)cc2)NC(=O)CSC[C@@H](C(=O)N[C@@H](C)C(N)=O)NC(=O)[C@H](CCCN)NC(=O)[C@H](C(C)C)NC(=O)[C@H](CC2CCCCC2)NC(=O)[C@H](CCN)NC1=O` [Compound 1742] ({CH2CO}-Y(Carboxymethyl)[Phe(4-COOH)]DWV[Bip]V[Orn][dL][Dab][Cha]V[Orn]CA-NH2; thioether N-14): the IC50 was found to be 6.6 nM.
With `CCC(C)[C@@H]1NC(=O)[C@H](Cc2ccc(-c3ccccc3)cc2)NC(=O)[C@H](C(C)C)NC(=O)[C@H](Cc2c[nH]c3ccccc23)NC(=O)[C@H](CC(=O)O)NC(=O)[C@H](Cc2ccc(-c3cccc(C(=O)O)c3)cc2)NC(=O)[C@H](Cc2ccncc2)NC(=O)CSC[C@@H](C(=O)N[C@@H](C)C(N)=O)NC(=O)[C@H]([C@@H](C)O)NC(=O)[C@H](C(C)C)NC(=O)[C@H](CC2CCCCC2)NC(=O)[C@H](CCN)NC(=O)[C@@H](CC(C)C)NC(=O)[C@H](CCCN)NC1=O` (some centres unmarked) [Compound 2221] the figure was 32.1 nM.
As to `CC(C)C[C@H]1NC(=O)[C@H](CCCN)NC(=O)[C@H](CCC(=O)O)NC(=O)[C@H](Cc2ccc(-c3ccccc3)cc2)NC(=O)[C@H](C(C)C)NC(=O)[C@H](Cc2c[nH]c3ccccc23)NC(=O)[C@H](CC(=O)O)NC(=O)[C@H](Cc2ccc(OCC(=O)O)cc2)NC(=O)[C@H](CN)NC(=O)CSC[C@@H](C(=O)N[C@@H](C)C(N)=O)NC(=O)[C@H]([C@@H](C)O)NC(=O)[C@H](C(C)C)NC(=O)[C@H](Cc2cscn2)NC(=O)[C@H](CCN)NC1=O` [Compound 1510], the IC50 is 25.7 nM.
In the case of `CC(C)[C@@H]1NC(=O)[C@H](Cc2c[nH]c3ccccc23)NC(=O)[C@H](CC(=O)O)NC(=O)[C@H](Cc2ccncc2)NC(=O)[C@H](Cc2ccc(OCC(=O)O)cc2)NC(=O)CSC[C@@H](C(=O)N[C@@H](C)C(N)=O)NC(=O)[C@H]([C@@H](C)O)NC(=O)[C@H](C(C)C)NC(=O)[C@H](CC2CCCCC2)NC(=O)[C@H](CCN)NC(=O)[C@@H](Cc2ccccc2)NC(=O)[C@H](CCCN)NC(=O)[C@H](CCC(=O)O)NC(=O)[C@H](Cc2ccc(-c3ccccc3)cc2)NC1=O` [Compound 1434] ({CH2CO}-Y(Carboxymethyl)[4Pal]DWV[Bip]E[Orn][dF][Dab][Cha]VTCA-NH2; thioether N-14), the IC50 came out at 35.9 nM.
As to `Cc1cccc(C[C@@H]2NC(=O)[C@H](CC(=O)O)NC(=O)[C@H](Cc3ccc(OCC(=O)O)cc3)NC(=O)[C@H](Cc3ccncc3)NC(=O)CSC[C@@H](C(=O)N[C@@H](CCN)C(N)=O)NC(=O)[C@H]([C@@H](C)O)NC(=O)[C@H](C(C)C)NC(=O)[C@H](CC3CCCCC3)NC(=O)[C@H](CCNC(=O)C(C)(C)C)NC(=O)[C@@H](CC(C)C)NC(=O)[C@H](CCN)NC(=O)[C@H](Cc3ccc(OCC(=O)O)cc3)NC(=O)[C@H](Cc3ccc(-c4ccccc4)cc3)NC(=O)[C@H](Cc3ccc(OCC(=O)O)cc3)NC2=O)c1` [Compound 2062] ({CH2CO}-[4Pal]Y(Carboxymethyl)D[Phe(3-Me)]Y(Carboxymethyl)[Bip]Y(Carboxymethyl)[Dab][dL][Dab](Piv)[Cha]VTC[Dab]-NH2; thioether N-14), the IC50 came out at 12.8 nM.
For the compound `COc1cccc(C[C@@H]2NC(=O)[C@H](CC(=O)O)NC(=O)[C@H](Cc3ccc(O)cc3)NC(=O)[C@H](CC(N)=O)NC(=O)CSC[C@@H](C(=O)N[C@@H](C)C(N)=O)NC(=O)[C@H]([C@@H](C)O)NC(=O)[C@H](C(C)C)NC(=O)[C@H](CC3CCCCC3)NC(=O)[C@H](CCN)NC(=O)[C@@H](CC(C)C)NC(=O)[C@H](CCCN)NC(=O)[C@H](CCC(=O)O)NC(=O)[C@H](Cc3ccc(-c4ccccc4)cc3)NC(=O)[C@H](C(C)C)NC2=O)c1` [Compound 1466] ({CH2CO}-NYD[Phe(3-OMe)]V[Bip]E[Orn][dL][Dab][Cha]VTCA-NH2; thioether N-14), the IC50 was 16.3 nM.
As for `CC(C)C[C@H]1NC(=O)[C@H](CCCN)NC(=O)[C@H](C(C)C)NC(=O)[C@H](Cc2ccc(-c3ccccc3)cc2)NC(=O)[C@H](C(C)C)NC(=O)[C@H](Cc2cccc(Cl)c2)NC(=O)[C@H](CC(=O)O)NC(=O)[C@H](Cc2ccc(C(=O)O)cc2)NC(=O)[C@H](Cc2ccc(OCC(=O)O)cc2)NC(=O)CSC[C@@H](C(=O)N[C@@H](C)C(N)=O)NC(=O)[C@H]([C@@H](C)O)NC(=O)[C@H](C(C)C)NC(=O)[C@H](CC2CCCCC2)NC(=O)[C@H](CCN)NC1=O` [Compound 1569], the figure is 16.4 nM; as for `CC(C)C[C@@H]1NC(=O)[C@H](CCN)NC(=O)[C@@H](CC(C)C)NC(=O)[C@H](C)NC(=O)[C@H](C(C)C)NC(=O)[C@H](Cc2ccc(-c3ccccc3)cc2)NC(=O)[C@H](C(C)C)NC(=O)[C@H](Cc2c[nH]c3ccccc23)NC(=O)[C@H](CC(=O)O)NC(=O)[C@H](Cc2ccc(O)cc2)NC(=O)[C@H](CC(N)=O)NC(=O)CSC[C@@H](C(=O)N[C@@H](C)C(N)=O)NC(=O)[C@H]([C@@H](C)O)NC(=O)[C@H](C(C)C)NC1=O` [Compound 1014] ({CH2CO}-NYDWV[Bip]VA[dL][Dab]LVTCA-NH2; thioether N-14), 16.7 nM.
As for `CC(C)C[C@@H]1NC(=O)[C@H](CCN)NC(=O)[C@@H](CC(C)C)NC(=O)[C@H](CCCCN)NC(=O)[C@H](CCCNC(N)=O)NC(=O)[C@H](Cc2ccc(-c3ccccc3)cc2)NC(=O)[C@H](C(C)C)NC(=O)[C@H](Cc2c[nH]c3ccccc23)NC(=O)[C@H](CC(=O)O)NC(=O)[C@H](Cc2ccc(O)cc2)NC(=O)[C@H](CC(N)=O)NC(=O)CSC[C@@H](C(=O)N[C@@H](C)C(N)=O)NC(=O)[C@H]([C@@H](C)O)NC(=O)[C@H](C(C)C)NC1=O` [Compound 1019] ({CH2CO}-NYDWV[Bip][Cit]K[dL][Dab]LVTCA-NH2; thioether N-14), the figure is 20.6 nM.
